In ChEMBL document CHEMBL4616632, “Discovery of Cyclic Boronic Acid QPX7728, an Ultrabroad-Spectrum Inhibitor of Serine and Metallo-β-lactamases” (J Med Chem, 2020):

Key:
[1] = system: Escherichia coli; assay: Inhibition of Escherichia coli EC302 TEM-10 assessed as minimum concentration of compound needed to reduce the MIC of aztreonam to 4 ug/ml
[2] = system: Klebsiella pneumoniae; assay: Inhibition of Klebsiella pneumoniae KP1009 CTX-M-15 assessed as minimum concentration of compound required to reduce the MIC of aztreonam to 4 ug/ml
[3] = system: Klebsiella pneumoniae; assay: Inhibition of Klebsiella pneumoniae KP1054 VIM-1 assessed as minimum concentration of compound required to reduce the MIC of biapenem to 1 ug/ml
[4] = system: Enterobacter cloacae; assay: Inhibition of Enterobacter cloacae ECL1002 AmpC assessed as minimum concentration of compound needed to reduce the MIC of aztreonam to 4 ug/ml
[5] = biological target: Beta-lactamase (Klebsiella pneumoniae) (UniProt Q93LQ9); assay: Inhibition of Klebsiella pneumoniae KP1004 KPC-2 assessed as minimum concentration of compound needed to reduce the MIC of aztreonam to 4 ug/ml
[6] = system: Escherichia coli; assay: Inhibition of Escherichia coli KP308 SHV-5 assessed as minimum concentration of compound required to reduce the MIC of aztreonam to 4 ug/ml
[7] = system: Klebsiella pneumoniae; assay: Inhibition of Klebsiella pneumoniae KP1081 NDM-1 assessed as minimum concentration of compound required to reduce the MIC of biapenem to 1 ug/ml
[8] = biological target: Beta-lactamase OXA-23 (Acinetobacter baumannii) (UniProt Q9L4P2); assay: Inhibition of Acinetobacter baumannii AB1054 OXA-23 assessed as minimum concentration of compound needed to reduce the MIC of meropenem to 8 ug/ml
[9] = system: Klebsiella pneumoniae; assay: Inhibition of Klebsiella pneumoniae KP1160 IMP-26 assessed as minimum concentration of compound needed to reduce the MIC of meropenem to 1 ug/ml
[10] = system: Pseudomonas aeruginosa; assay: Inhibition of Pseudomonas aeruginosa PAM 2035 AmpC assessed as minimum concentration of compound needed to reduce the MIC of aztreonam to 4 ug/ml
[11] = system: Escherichia coli; assay: Inhibition of Escherichia coli ECM6625 SHV-5 assessed as minimum concentration of compound needed to reduce the MIC of aztreonam to 4 ug/ml
[12] = system: Escherichia coli; assay: Inhibition of Escherichia coli ECM6619 TEM-10 assessed as minimum concentration of compound needed to reduce the MIC of aztreonam to 4 ug/ml
[13] = system: Acinetobacter baumannii; assay: Inhibition of Acinetobacter baumannii AB1053 OXA-72 assessed as minimum concentration of compound needed to reduce the MIC of meropenem to 8 ug/ml

Chain of Beta-lactamase (Klebsiella pneumoniae) (Q93LQ9 as listed by the source): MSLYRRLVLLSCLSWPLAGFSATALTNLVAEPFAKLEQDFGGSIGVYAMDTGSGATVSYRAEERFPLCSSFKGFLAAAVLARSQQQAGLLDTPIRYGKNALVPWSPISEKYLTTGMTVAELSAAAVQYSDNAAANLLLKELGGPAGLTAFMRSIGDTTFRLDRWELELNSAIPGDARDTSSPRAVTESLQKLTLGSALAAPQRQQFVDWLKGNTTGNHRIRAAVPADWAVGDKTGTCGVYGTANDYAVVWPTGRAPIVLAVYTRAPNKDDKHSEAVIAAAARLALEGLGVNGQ
Chain of Beta-lactamase OXA-23 (Acinetobacter baumannii) (Q9L4P2 whole entry): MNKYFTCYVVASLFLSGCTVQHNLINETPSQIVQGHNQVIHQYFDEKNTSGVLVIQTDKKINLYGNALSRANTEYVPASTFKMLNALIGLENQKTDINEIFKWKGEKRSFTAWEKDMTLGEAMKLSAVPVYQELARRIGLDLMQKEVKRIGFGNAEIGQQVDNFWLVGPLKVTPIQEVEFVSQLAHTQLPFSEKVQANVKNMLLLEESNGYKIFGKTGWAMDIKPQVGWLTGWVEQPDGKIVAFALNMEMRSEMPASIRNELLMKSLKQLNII

SMILES | MEC [1] | MEC [2] | MEC [3] | MEC [4] | MEC [5] | MEC [6] | MEC [7] | MEC [8] | MEC [9] | MEC [10] | MEC [11] | MEC [12] | MEC [13]
CO[C@H]1Cc2cccc(C(=O)O)c2OB1O | 20 µg/mL | 10 µg/mL | 0.16 µg/mL | 2.5 µg/mL | 0.3 µg/mL | 2.5 µg/mL | 0.6 µg/mL |  |  |  |  |  | 
O=C(O)c1cccc2c1OB(O)[C@@H](Sc1nccs1)C2 | > 20 µg/mL | > 20 µg/mL | 2.5 µg/mL | > 20 µg/mL | > 20 µg/mL | 10 µg/mL | 0.3 µg/mL |  |  |  |  |  | 
O=C(O)c1c(F)ccc2c1OB(O)CC2 |  | 0.6 µg/mL | 5 µg/mL | 0.16 µg/mL | 0.16 µg/mL |  | 0.6 µg/mL | 2.5 µg/mL | > 20 µg/mL | 0.6 µg/mL | 0.6 µg/mL | 0.08 µg/mL | 2.5 µg/mL
NC(=O)CCS[C@H]1Cc2cccc(C(=O)O)c2OB1O | > 20 µg/mL | > 20 µg/mL | 1.25 µg/mL | > 20 µg/mL | 5 µg/mL | > 20 µg/mL | 1.25 µg/mL |  |  |  |  |  | 
O=C(O)c1cccc2c1OB(O)[C@@H](Sc1c[nH]nn1)C2 | > 20 µg/mL | > 20 µg/mL | 0.6 µg/mL | > 20 µg/mL | > 20 µg/mL | 5 µg/mL | 0.3 µg/mL |  |  |  |  |  | 
O=C(O)c1c(OC(F)F)ccc2c1OB(O)[C@@H](Sc1nncs1)C2 | 20 µg/mL | 20 µg/mL | 1.25 µg/mL | > 20 µg/mL | 5 µg/mL | 2.5 µg/mL | 1.25 µg/mL |  | 20 µg/mL | 20 µg/mL |  |  | 
O=C(O)c1cccc2c1OB(O)[C@@H](Sc1ccccn1)C2 | > 10 µg/mL | > 10 µg/mL | > 20 µg/mL | > 10 µg/mL | > 10 µg/mL | > 10 µg/mL | > 20 µg/mL |  |  |  |  |  | 
O=C(O)c1cccc2c1OB(O)[C@@H](Sc1nnc[nH]1)C2 | > 40 µg/mL | 5 µg/mL | 2.5 µg/mL | > 40 µg/mL | > 40 µg/mL | > 40 µg/mL | < 0.3 µg/mL |  |  |  |  |  | 
CS[C@H]1Cc2cccc(C(=O)O)c2OB1O | > 20 µg/mL | > 20 µg/mL | < 0.3 µg/mL | > 20 µg/mL | 2.5 µg/mL | > 20 µg/mL | 0.6 µg/mL |  |  |  |  |  | 
Nn1cnnc1S[C@H]1Cc2cccc(C(=O)O)c2OB1O | > 20 µg/mL | 10 µg/mL | 0.3 µg/mL | 5 µg/mL | 5 µg/mL | 10 µg/mL | 0.16 µg/mL |  |  |  |  |  | 
N#CCOc1ccc2c(c1C(=O)O)OB(O)[C@@H](Sc1nncs1)C2 | 20 µg/mL | > 20 µg/mL | 2.5 µg/mL | > 20 µg/mL | 20 µg/mL | 10 µg/mL | 2.5 µg/mL |  | > 20 µg/mL | > 20 µg/mL |  |  | 
O=C(O)c1c(F)ccc2c1OB(O)[C@@H](Sc1nncs1)C2 | 5 µg/mL | 10 µg/mL | 1.25 µg/mL | 5 µg/mL | 2.5 µg/mL | 0.3 µg/mL | 0.6 µg/mL |  | 20 µg/mL | 20 µg/mL |  |  | 
O=C(O)c1cccc2c1OB(O)[C@@H](Sc1ncc[nH]1)C2 | > 10 µg/mL | > 10 µg/mL | > 20 µg/mL | > 10 µg/mL | > 10 µg/mL | > 10 µg/mL | > 20 µg/mL |  |  |  |  |  | 
O=C(O)c1c(OCc2nncs2)ccc2c1OB(O)[C@@H](Sc1nncs1)C2 | 5 µg/mL | 20 µg/mL | 0.3 µg/mL | > 20 µg/mL | 20 µg/mL | 5 µg/mL | 2.5 µg/mL |  | 2.5 µg/mL | > 20 µg/mL |  |  | 
Nc1nnc(S[C@H]2Cc3cccc(C(=O)O)c3OB2O)[nH]1 | > 20 µg/mL | > 20 µg/mL | < 0.3 µg/mL | > 20 µg/mL | > 20 µg/mL | > 20 µg/mL | < 0.3 µg/mL |  |  |  |  |  | 
Nc1nnc(S[C@H]2Cc3cccc(C(=O)O)c3OB2O)s1 | > 10 µg/mL | > 10 µg/mL | 0.16 µg/mL | > 10 µg/mL | 10 µg/mL | 5 µg/mL | 0.3 µg/mL |  |  |  |  |  | 
N=C(N)S[C@H]1Cc2cccc(C(=O)O)c2OB1O | > 20 µg/mL | > 20 µg/mL | > 20 µg/mL | > 20 µg/mL | > 20 µg/mL | > 20 µg/mL | > 20 µg/mL |  |  |  |  |  | 
